Data taken from patent publication US9322066B2, “Predictors for cancer treatment” (priority 2011, dated 2016).

Test system: relapsed or refractory, rituximab-naive or -sensitive follicular B-cell NHL
Assay: Treatment free interval, Vc-R vs rituximab study, by biomarker
Type: in vivo, human
Parameters: Treatment Free Interval, Median: unit not given here
Description: Non-Hodgkin lymphoma (NHL) encompasses several unique malignant lymphoid disease entities that vary in clinical behavior, morphologic appearance, immunologic, and molecular phenotype. […] A randomized, open-label, active-controlled, multicenter, multinational, prospective study to compare the efficacy and safety of the combination of bortezomib and rituximab (Vc-R) to single-agent rituximab in subjects who have relapsed or refractory, rituximab-naive or -sensitive follicular B-cell NHL was performed.
Subjects were centrally randomized to Treatment Groups A (Vc-R) or B (rituximab) in a 1:1 ratio taking into account the following stratification factors: • Follicular Lymphoma International Prognostic Index (FLIPI) score (low [0 or 1 factor], intermediate [2 factors], high [≧3 factors]); • Prior rituximab therapy (yes, no); • Time since last dose of anti-lymphoma therapy (≦1 year, >1 year); • Region (United States/Canada, European Union, Rest of World).
The following clinical endpoints were included in the analysis within each treatment group and an overall comparison was made with the biomarker-related endpoints: Progression-free survival, defined as the interval between the date of randomization and the date of progressive disease (PD) or death, whichever is first reported in the ITT population; overall survival; overall response rate (complete response [CR]+CR unconfirmed [CRu]+partial response [PR]); overall CR rate (CR+CRu); duration of response; time to next anti-lymphoma therapy; and treatment free interval.

[1] = P65 % NUCLEAR STAINING: 0, 1 Prior Line of Therapy, IRC Review
[2] = P65 % NUCLEAR STAINING: ≦5%, 2 Prior Lines of Therapy, IRC Review
[3] = P65 % NUCLEAR STAINING: ≦5%, 5 Prior Lines of Therapy, IRC Review
[4] = P65 % NUCLEAR STAINING: ≦5%, Prior Rituximab Therapy, IRC Review
[5] = P65 % NUCLEAR STAINING: ≦5%, ≦65 years old, IRC Review
[6] = P65 % POSITIVE CYTOPLASMIC SIGNAL: >90%, 1 Prior Line of Therapy, IRC Review
[7] = P65 % POSITIVE CYTOPLASMIC SIGNAL: >90%, No Subgroup, IRC Review
[8] = P65 % POSITIVE CYTOPLASMIC SIGNAL: >90%, White, IRC Review
[9] = P65 % POSITIVE CYTOPLASMIC SIGNAL: >90%, ≦65 years old, IRC Review
[10] = P65 INTENSITY CYTOPLASMIC SIGNAL: ≦1+, Ann Arbor Stage III, IRC Review
[11] = P65 INTENSITY CYTOPLASMIC SIGNAL: ≧2+, 1 Prior Line of Therapy, IRC Review
[12] = P65 INTENSITY CYTOPLASMIC SIGNAL: ≧2+, ≦65 years old, IRC Review
[13] = PSMB1/A171S: G/G, >1 year since last anti-lymphoma treatment, IRC Review
[14] = PSMB1/A171S: G/G, No Subgroup, IRC Review
[15] = PSMB1/A171S: G/G, ≦65 years old, IRC review
[16] = PSMB1/I208N: T/T, >1 year since last anti-lymphoma treatment, IRC Review
[17] = PSMB1/I208N: T/T, No Subgroup, IRC Review
[18] = PSMB1/I208N: T/T, ≦65 years old, IRC review
[19] = PSMB1/P11A: C/G, European Union, IRC Review
[20] = PSMB1/P11A: C/G, No Subgroup, IRC Review
[21] = PSMB1/P11A: C/G, ≦65 years old, IRC review
[22] = PSMB1/P11A: G/G, ≦65 years old, IRC Review
[23] = PSMB1/P193L: C/C, >1 year since last anti-lymphoma treatment, IRC Review
[24] = PSMB1/P193L: C/C, ≦65 years old, IRC review
[25] = PSMB2/E49X: G/G, >1 year since last anti-lymphoma treatment, IRC Review
[26] = PSMB2/E49X: G/G, ≦65 years old, IRC review
[27] = PSMB2/G187V: G/G, >1 year since last anti-lymphoma treatment, IRC Review
[28] = PSMB2/G187V: G/G, ≦65 years old, IRC review
[29] = PSMB2/L159F: C/C, >1 year since last anti-lymphoma treatment, IRC Review
[30] = PSMB2/L159F: C/C, ≦65 years old, IRC review
[31] = PSMB5/L206M: C/C, >1 year since last anti-lymphoma treatment, IRC Review
[32] = PSMB5/L206M: C/C, ≦65 years old, IRC review
[33] = PSMB5/R24C: C/C, >1 year since last anti-lymphoma treatment, IRC Review
[34] = PSMB5/R24C: C/C, ≦65 years old, IRC review
[35] = PSMB6/A234D: C/C, >1 year since last anti-lymphoma treatment, IRC Review
[36] = PSMB6/A234D: C/C, ≦65 years old, IRC review
[37] = PSMB6/P107A: C/C, >1 year since last anti-lymphoma treatment, IRC Review
[38] = PSMB6/P107A: C/C, ≦65 years old, IRC review
[39] = PSMB8/G8R: G/G, >1 year since last anti-lymphoma treatment, IRC Review
[40] = PSMB8/G8R: G/G, ≦65 years old, IRC review
[41] = PSMB8/R141C: C/C, >1 year since last anti-lymphoma treatment, IRC Review
[42] = PSMB8/R141C: C/C, ≦65 years old, IRC review
[43] = PSMB8/V182M: G/G, >1 year since last anti-lymphoma treatment, IRC review
[44] = PSMB8/V182M: G/G, ≦65 years old, IRC review
[45] = PSMB9/G9E: G/G, >1 year since last anti-lymphoma treatment, IRC review
[46] = PSMB9/G9E: G/G, ≦65 years old, IRC review
[47] = PSMB9/V32I: C/C, >1 year since last anti-lymphoma treatment, IRC review
[48] = PSMB9/V32I: C/C, High Tumor Burden, IRC Review
[49] = PSMB9/V32I: C/C, ≦65 years old, IRC review

For rituximab, the “Treatment Free Interval, Median” value (P27 SIGNAL INTENSITY: ≧2+, Prior Rituximab Therapy, IRC Review) was 272, the “Treatment Free Interval, Evt/N” value [1] was 54/79 and the “Treatment Free Interval, Median” value [1] was 406. For the same substance, the “Treatment Free Interval, Evt/N” value [2] was 7/9, the “Treatment Free Interval, Median” value [2] was 85 and the “Treatment Free Interval, Evt/N” value [3] was 3/3. The “Treatment Free Interval, Median” value [3] was 95, the “Treatment Free Interval, Evt/N” value [4] was 16/21 and the “Treatment Free Interval, Median” value [4] was 93. For the same substance, the “Treatment Free Interval, Evt/N” value [5] was 19/29, the “Treatment Free Interval, Median” value [5] was 234 and the “Treatment Free Interval, Evt/N” value [6] was 59/89. The “Treatment Free Interval, Median” value [6] was 409, the “Treatment Free Interval, Evt/N” value [7] was 129/204 and the “Treatment Free Interval, Median” value [7] was 363. The “Treatment Free Interval, Evt/N” value [8] was 113/179, the “Treatment Free Interval, Median” value [8] was 363 and the “Treatment Free Interval, Evt/N” value [9] was 103/154. For the same substance, the “Treatment Free Interval, Median” value [9] was 343, the “Treatment Free Interval, Evt/N” value [10] was 10/11 and the “Treatment Free Interval, Median” value [10] was 119. For the same substance, the “Treatment Free Interval, Evt/N” value [11] was 54/85, the “Treatment Free Interval, Median” value [11] was 427 and the “Treatment Free Interval, Evt/N” value [12] was 101/152. The “Treatment Free Interval, Median” value [12] was 343, the “Treatment Free Interval, Evt/N” value [13] was 98/165 and the “Treatment Free Interval, Median” value [13] was 547. The “Treatment Free Interval, Evt/N” value [14] was 173/276, the “Treatment Free Interval, Median” value [14] was 406 and the “Treatment Free Interval, Evt/N” value [15] was 130/198. For the same substance, the “Treatment Free Interval, Median” value [15] was 344, the “Treatment Free Interval, Evt/N” value [16] was 98/165 and the “Treatment Free Interval, Median” value [16] was 547. The “Treatment Free Interval, Evt/N” value [17] was 173/276, the “Treatment Free Interval, Median” value [17] was 406 and the “Treatment Free Interval, Evt/N” value [18] was 130/198. For the same substance, the “Treatment Free Interval, Median” value [18] was 344, the “Treatment Free Interval, Evt/N” value [19] was 34/49 and the “Treatment Free Interval, Median” value [19] was 309. For the same substance, the “Treatment Free Interval, Median” value (PSMB1/P11A: C/G, Female, IRC Review) was 406, the “Treatment Free Interval, Evt/N” value [20] was 78/127 and the “Treatment Free Interval, Median” value [20] was 409. For the same substance, the “Treatment Free Interval, Evt/N” value [21] was 63/96, the “Treatment Free Interval, Median” value [21] was 406 and the “Treatment Free Interval, Evt/N” value [22] was 21/25. The “Treatment Free Interval, Median” value [22] was 269, the “Treatment Free Interval, Evt/N” value [23] was 98/165 and the “Treatment Free Interval, Median” value [23] was 547. For the same substance, the “Treatment Free Interval, Median” value (PSMB1/P193L: C/C, No Subgroup, IRC Review) was 406, the “Treatment Free Interval, Evt/N” value [24] was 130/198 and the “Treatment Free Interval, Median” value [24] was 344. For the same substance, the “Treatment Free Interval, Evt/N” value [25] was 98/165, the “Treatment Free Interval, Median” value [25] was 547 and the “Treatment Free Interval, Evt/N” value [26] was 130/198. For the same substance, the “Treatment Free Interval, Median” value [26] was 344, the “Treatment Free Interval, Evt/N” value [27] was 98/165 and the “Treatment Free Interval, Median” value [27] was 547. The “Treatment Free Interval, Evt/N” value [28] was 130/198, the “Treatment Free Interval, Median” value [28] was 344 and the “Treatment Free Interval, Evt/N” value [29] was 98/165. The “Treatment Free Interval, Median” value [29] was 547, the “Treatment Free Interval, Evt/N” value [30] was 130/198 and the “Treatment Free Interval, Median” value [30] was 344. The “Treatment Free Interval, Evt/N” value [31] was 98/165, the “Treatment Free Interval, Median” value [31] was 547 and the “Treatment Free Interval, Evt/N” value [32] was 130/198. For the same substance, the “Treatment Free Interval, Median” value [32] was 344, the “Treatment Free Interval, Evt/N” value [33] was 81/137 and the “Treatment Free Interval, Median” value [33] was 507. For the same substance, the “Treatment Free Interval, Evt/N” value [34] was 113/170, the “Treatment Free Interval, Median” value [34] was 344 and the “Treatment Free Interval, Evt/N” value [35] was 98/165. For the same substance, the “Treatment Free Interval, Median” value [35] was 547, the “Treatment Free Interval, Evt/N” value [36] was 130/198 and the “Treatment Free Interval, Median” value [36] was 344. For the same substance, the “Treatment Free Interval, Evt/N” value [37] was 95/159, the “Treatment Free Interval, Median” value [37] was 561 and the “Treatment Free Interval, Evt/N” value [38] was 125/189. For the same substance, the “Treatment Free Interval, Median” value [38] was 363, the “Treatment Free Interval, Evt/N” value [39] was 91/155 and the “Treatment Free Interval, Median” value [39] was 562. For the same substance, the “Treatment Free Interval, Evt/N” value [40] was 123/189, the “Treatment Free Interval, Median” value [40] was 344 and the “Treatment Free Interval, Evt/N” value [41] was 98/165. The “Treatment Free Interval, Median” value [41] was 547, the “Treatment Free Interval, Evt/N” value [42] was 130/198 and the “Treatment Free Interval, Median” value [42] was 344. The “Treatment Free Interval, Evt/N” value [43] was 98/165, the “Treatment Free Interval, Median” value [43] was 547 and the “Treatment Free Interval, Evt/N” value [44] was 130/198. The “Treatment Free Interval, Median” value [44] was 344, the “Treatment Free Interval, Evt/N” value [45] was 97/163 and the “Treatment Free Interval, Median” value [45] was 547. For the same substance, the “Treatment Free Interval, Evt/N” value [46] was 129/196, the “Treatment Free Interval, Median” value [46] was 344 and the “Treatment Free Interval, Evt/N” value [47] was 96/160. The “Treatment Free Interval, Median” value [47] was 507, the “Treatment Free Interval, Evt/N” value [48] was 106/142 and the “Treatment Free Interval, Median” value [48] was 234. For the same substance, the “Treatment Free Interval, Evt/N” value [49] was 127/192 and the “Treatment Free Interval, Median” value [49] was 344.
